# Experimental data: patent publication US5780509A, “Compound bearing two, 2,6-diiodophenol-4-YL groups and diagnostic drug for iodine allergy” (Muromachi Kagaku Kogyo Kaisha, Ltd., priority 1994, dated 1998)
# Non-standard residues stand in square brackets, D forms with d. Residues, ends and D or L forms follow the SMILES beside them. Tyr(3,5-I2) = N[C@@H](Cc1cc(I)c(O)c(I)c1)C(=O)O
# Experiments:
# [1] = system: guinea-pigs immunized with iodine (iodine-sensitized) and non-sensitized guinea-pigs; assay: Active cutaneous anaphylaxis (ACA) reaction, elicitation antigenicity; assay type: in vivo, guinea-pig (male SPF, Hartley strain); design: key to Mean diameter of blue spots, non-sensitized guinea-pig / Mean diameter of blue spots, iodine-sensitized guinea pig (second value) / Mean diameter of blue spots, iodine-sensitized guinea pig (first value): --: Negative response; **: Weak response; settings: for Mean diameter of blue spots, iodine-sensitized guinea pig (first value) / Mean diameter of blue spots, iodine-sensitized guinea pig (second value) / Mean diameter of blue spots, non-sensitized guinea-pig: 30 min
# From the text: The elicitation antigenicity of iodinated tyrosine derivatives was studied in the bases of the active cutaneous anaphylaxis (ACA) reaction in guinea-pigs immunized with iodine.
# Animals: Male SPF guinea-pigs of Hartley strain, weighing 300~350 g were purchased from Charles River Japan Co., Ltd. These were immunized after having been acclimated for one week.
# Sensitization: A solution of iodine potassium iodide (Wako Junyaku, special grade reagent) and complete Freund's adjuvant (Difco) were mixed in equal amounts to form an emulsion. This was administered subcutaneously into the back of guinea-pigs at a dose of 2 mg of iodine per animal 3 times at intervals of 2 weeks. Active cutaneous anaphylaxis (ACA) was elicited 2 weeks after the last sensitization injection.
# ACA Induction: 2% Evans blue physiological solution (0.5 ml/animal) was administered intravenously to guinea-pigs, and immediately thereafter 0.1 ml of an elicitation antigen was administered intradermally into the back, and after 30 min. the existence of pigment leakage at the intradermally injected sites was observed.
# Elicitation antigen: Iodinated dityrosine, iodinated trityrosine, iodinated dityrosylphenylalanine were administered intracutaneously at 0.1 ml/site. Guinea-pig serum albumin (fraction V: Sigma) was iodinated and used as a positive control. Corresponding noniodinated ones were also administered intradermally as negative controls.
# Iodination reaction: To a 50 mM boric acid buffer solution (pH 9.5) of 10 mg/ml of dityrosine, trityrosine, or dityrosylphenylalanine (all produced by Sigma Co., Ltd.) or guinea-pig serum albumin (abbreviated hereafter as GSA), a 0.5M solution of iodine was added at a ratio of 10:1, and these were reacted at 37 C. overnight. The excess iodine in the reaction mixture was reduced by adding sodium thiosulfate (Nakarai Chemical Co., Ltd.). For purification of the iodinated tyrosine derivatives, the reaction mixture was extracted with ethyl acetate and dried with magnesium sulfate, and hexane was added to obtain crystals. For purification of the iodinated GSA, the reaction mixture was purified by passing it through a Sephadex G25 column.
# guinea-pigs [2] = assay: Active systemic anaphylaxis (ASA) reaction, sensitization antigenicity; assay type: in vivo, guinea-pig
# From the text: (§1) Sensitization antigenicity of iodinated tyrosine derivative was studied.
# (§2) Trityrosine was selected as the tyrosine derivative, and this was iodinated to obtain iodinated trityrosine. Guinea-pigs were sensitized with iodinated trityrosine. As a positive control, employed was iodinated guinea-pig serum albumin (GSA). Guinea-pigs of the control group were sensitized with iodinated GSA. Sensitization was examined by active systemic anaphylaxis (ASA) reaction and passive cutaneous anaphylaxis (PCA) reaction.
# (§3) Sensitization: Each of iodinated trityrosine and iodinated GSA was emulsified with complete Freund's adjuvant, and injected subcutaneously to the back of animals at a dose of 10 mg/animal (2.5 mg, respectively, at 4 sites), 3 times at intervals of 2 weeks.
# ASA reaction: Iodinated GSA (1 mg/animal) was injected intravenously to the animals one week after the last sensitization injection, by which ASA reaction was elicited. The animals which indicated symptoms of anaphylactic shock were judged as being positive.
# guinea-pigs [3] = assay: Passive cutaneous anaphylaxis (PCA) reaction, sensitization antigenicity; assay type: in vivo, guinea-pig
# From the text: as §1, §2, §3
# PCA reaction: The blood was taken from each animal, and the serum was separated one week after the last sensitization injection. The serum was diluted fivefold with physiological saline, and injected intradermally to normal guinea-pigs at a dose of 0.1 ml/site. PCA reaction was provoked by intravenous injection of iodinated GSA (1 mg/animal) and Evans blue solution to the recipient animals 4 hours after the intradermal serum injection. PCA reaction was judged as being positive when the diameter of blue spot at the site of intradermal injection was 5 mm or larger.
# anti-iodine antibody [4] = assay: ELISA inhibition potency (OD50) on anti-iodine antibody; assay type: binding, guinea-pig; settings: serial twofold dilution, equal volume of 50-fold diluted anti-iodine antiserum; read-out: Inhibitory activity (OD50): concentration which decreased optical density of ELISA to a half of the control
# Procedure: (§4) Guinea-pigs were immunized with iodine by injecting subcutaneously 1 mg of iodine containing potassium iodide solution treated with complete Freund's adjuvant seven times at intervals of 2 weeks, and anti-iodine antiserum was obtained from these animals. Antibody titers of the sera were determined by enzyme linked immunosorbent assay (ELISA) using 96 well microplate coated with iodinated guinea pig serum albumin (I-GSA) ELISA inhibition activities of the following compounds were studied. The compounds used were potassium iodide, tyrosine and its derivatives such as L-tyrosine, monoiodo-L-tyrosine, diiodotyrosine, hexaiodo-L-trityrosine, L-hexatyrosine and 12 iodo-L-hexatyrosine, and iodinated X-ray contrast media such as amidotrizoic acid, iodamide, ioxaglic acid, iohexol, iopamidol and iomeprol.
# (§5) ELISA inhibition study was performed as follows. Antibody concentration of anti-iodine antiserum gave the maximum optical density in ELISA till one hundredfold serum dilution. Accordingly, seven steps of twofold serial dilution of anti-iodine antiserum, starting from 50-fold serum dilution, were made with physiological saline as a diluent. To each of the serially diluted sera, were added equal volume of solution containing each of the test compounds described above. After overnight incubation at 4 C, antibody activity was determined by ELISA. Phosphate buffered physiological saline (PBS) was used as a control. ELISA inhibitory activities of the test compounds were determined at the serum dilution which gave about 50% of the maximum optical density (OD415nm =2.6) of ELISA of control at serum dilution of one hundredfold. The inhibitory activity was calculated by the following calculation formula.
# In the next, ELISA inhibition study was undertaken to determine the potency of ELISA inhibitory activity of active compounds. […] The inhibitory activity was expressed as the concentration which decreased optical density of ELISA to a half (OD50) of the control.
# anti-iodine antibody [5] = assay: ELISA inhibition on anti-iodine antibody (single concentration); assay type: binding, guinea-pig; design: key to ELISA inhibitory activity, judgment: +: a compound had inhibitory activity; -: a compound did not have inhibitory activity
# Procedure: as §4, §5
# Inhibition rate=[1-Optical density under test compouund/Optical density
SMILES,"Mean diameter of blue spots, iodine-sensitized guinea pig (first value) ([1]; 1 μg/site intradermal)","Mean diameter of blue spots, iodine-sensitized guinea pig (second value) ([1]; 1 μg/site intradermal)","Mean diameter of blue spots, non-sensitized guinea-pig ([1]; 1 μg/site intradermal)","Mean diameter of blue spots, iodine-sensitized guinea pig (first value) ([1]; 10 μg/site intradermal)","Mean diameter of blue spots, iodine-sensitized guinea pig (second value) ([1]; 10 μg/site intradermal)","Mean diameter of blue spots, non-sensitized guinea-pig ([1]; 10 μg/site intradermal)","Mean diameter of blue spots, iodine-sensitized guinea pig (first value) ([1]; 100 μg/site intradermal)","Mean diameter of blue spots, iodine-sensitized guinea pig (second value) ([1]; 100 μg/site intradermal)","Mean diameter of blue spots, non-sensitized guinea-pig ([1]; 100 μg/site intradermal)","ACA reaction (in words) ([1]; intradermal injection, guinea-pigs sensitized with iodine)","ASA reaction: number of positive animal/number of sensitized animal (guinea-pigs [2]; sensitized 10 mg/animal s.c. 3 times, elicited with iodinated GSA 1 mg/animal i.v.)",ASA reaction (in words) (guinea-pigs [2]; sensitized group),PCA reaction (in words) (guinea-pigs [3]; sensitized group),"Anti-iodine antibody production / sensitization antigenicity (in words) (guinea-pigs [3]; sensitized guinea-pigs, from ASA and PCA reactions)","PCA reaction: number of positive animal/number of sensitized animal (guinea-pigs [3]; serum diluted fivefold, 0.1 ml/site, iodinated GSA 1 mg/animal i.v., positive = blue spot 5 mm or larger)",IC50 (anti-iodine antibody [4]),ELISA inhibition rate (anti-iodine antibody [5]; 10 mM),"ELISA inhibitory activity, judgment (anti-iodine antibody [5]; 10 mM)",ELISA inhibition rate (anti-iodine antibody [5]; 1 mM),"ELISA inhibitory activity, judgment (anti-iodine antibody [5]; 1 mM)"
"N[C@@H](Cc1cc(I)c(O)c(I)c1)C(=O)N[C@@H](Cc1cc(I)c(O)c(I)c1)C(=O)N[C@@H](Cc1cc(I)c(O)c(I)c1)C(=O)O [Iodinated trityrosine, hexaiodo-L-trityrosine] (H-[Tyr(3,5-I2)]-[Tyr(3,5-I2)]-[Tyr(3,5-I2)]-OH)",6.0 mm,--,--,8.5 mm,4.0 mm,--,11.0 mm,6.0 mm,--,ACA reaction was elicited,0/5,negative in all animals,negative in all animals,no anti-iodine antibody was produced,0/5,125 µM,,,,
N[C@@H](Cc1cc(I)c(O)c(I)c1)C(=O)O [Diiodo-L-tyrosine],,,,,,,,,,,,,,,,5000 µM,100%,+,,
"N[C@@H](Cc1cc(I)c(O)c(I)c1)C(=O)N[C@@H](Cc1cc(I)c(O)c(I)c1)C(=O)N[C@@H](Cc1cc(I)c(O)c(I)c1)C(=O)N[C@@H](Cc1cc(I)c(O)c(I)c1)C(=O)N[C@@H](Cc1cc(I)c(O)c(I)c1)C(=O)N[C@@H](Cc1cc(I)c(O)c(I)c1)C(=O)O [12 iodo-L-hexatyrosine] (H-[Tyr(3,5-I2)][Tyr(3,5-I2)][Tyr(3,5-I2)][Tyr(3,5-I2)][Tyr(3,5-I2)][Tyr(3,5-I2)]-OH)",,,,,,,,,,,,,,,,125 µM,,,94.3%,+
